We go through 14 compounds from US6787539B2, “2,4,5,-trisubstituted pyrimidine derivatives” (Hoffmann-La Roche Inc., priority 2000, dated 2004).

Broadly, the pKi is −log10 of the Ki, conventionally taken in molar units. Higher therefore signals a low Ki. Usually Ki stands for a measure of affinity in units of concentration, obtained from inhibition or displacement. A lower Ki goes with a stronger hold on the target.

This experiment deals with T1, human NK1 receptor (Homo sapiens, UniProt P25103).
T1 construct: expressed in transfected cells; host or cells: CHO cells infected using the Semliki virus expression system; membrane suspension
T1 sequence (P25103 whole entry): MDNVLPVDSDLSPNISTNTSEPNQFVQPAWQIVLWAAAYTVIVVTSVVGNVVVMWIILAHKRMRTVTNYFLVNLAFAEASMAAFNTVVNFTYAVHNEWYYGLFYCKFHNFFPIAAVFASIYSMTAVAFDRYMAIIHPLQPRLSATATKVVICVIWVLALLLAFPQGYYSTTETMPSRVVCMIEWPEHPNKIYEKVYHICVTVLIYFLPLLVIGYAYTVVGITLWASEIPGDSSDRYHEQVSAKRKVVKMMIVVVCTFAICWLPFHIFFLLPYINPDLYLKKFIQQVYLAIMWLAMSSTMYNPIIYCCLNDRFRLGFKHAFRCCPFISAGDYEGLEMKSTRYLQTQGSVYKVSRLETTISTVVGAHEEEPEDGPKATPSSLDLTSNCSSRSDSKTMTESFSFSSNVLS
Briefly: Affinity for the NK1 receptor, [3H]substance P displacement binding assay. Conditions: affinity to the NK-1 receptor; human NK1 receptors in CHO cells; [3H]substance P 0.6 nM; 60 min at room temperature. Here is the method: The affinity of test compounds for the NK1 receptor was evaluated at human NK1 receptors in CHO cells infected with the human NK1 receptor (using the Semliki virus expression system) and radiolabelled with [^3H]substance P (final concentration 0.6 nM). Binding assays were performed in HEPES buffer (50 mM, pH 7.4) containing BSA (0.04%) leupeptin (8 μg/ml), MnCl2 (3 mM) and phosphoramidon (2 μM). Binding assays consisted of 250 μl of membrane suspension (1.25×10^5 cells/assay tube), […] of displacing agent and 125 μl of [^3H]substance P. Displacement curves were determined with at least seven concentrations of the compound. The assay tubes were incubated for 60 min at room temperature after which time the tube contents were rapidly filtered under vacuum through GF/C filters presoaked for 60 min with PEI (0.3%) with 2×2 ml washes of HEPES buffer (50 mM, pH 7.4). The radioactivity retained on the filters was measured by scintillation counting. All assays were performed in triplicate in at least 2 separate experiments.
Regarding “4-(2-Methoxy-phenoxy)-2-(4-methyl-piperazin-1-yl)-pyrimidine-5-carboxylic acid (3,5-bis-trifluoromethyl-benzyl)-methyl-amide [Example 29]”, the pKi was determined as 6.50.
As for `CSc1ncc(C(=O)N(C)Cc2cc(C(F)(F)F)cc(C(F)(F)F)c2)c(Oc2ccccc2C)n1` [Example 1, 2-Methylsulfanyl-4-o-tolyloxy-pyrimidine-5-carboxylic acid (3,5-bis-trifluoromethyl-benzyl)-methyl-amide], the affinity corresponds to a Ki of 41.7 nM.
Consider `Cc1ccccc1Oc1nc(N2CCN(C)CC2)ncc1C(=O)N(C)Cc1cc(C(F)(F)F)cc(C(F)(F)F)c1` [Example 4, 2-(4-Methyl-piperazin-1-yl)-4-o-tolyloxy-pyrimidine-5-carboxylic acid (3,5-bis-trifluoromethyl-benzyl)-methyl-amide], for which the Ki was 2.88 nM.
For `Cc1ccccc1Oc1nc(OCCN2CCOCC2)ncc1C(=O)N(C)Cc1cc(C(F)(F)F)cc(C(F)(F)F)c1` [Example 7, 2-(2-Morpholin-4-yl-ethoxy)-4-o-tolyloxy-pyrimidine-5-carboxylic acid (3,5-bis-trifluoromethyl-benzyl)-methyl-amide], the Ki was 4.68 nM.
The compound `COc1cc(CN(C)C(=O)c2cnc(N3CCN(C)CC3)nc2Oc2ccccc2C)cc(OC)c1` [Example 11, 2-(4-Methyl-piperazin-1-yl)-4-o-tolyloxy-pyrimidine-5-carboxylic acid (3,5-dimethoxy-benzyl)-methyl-amide] had a Ki of 170 nM.
`Cc1cc(C)cc(CN(C)C(=O)c2cnc(N3CCN(C)CC3)nc2Oc2ccccc2C)c1` [Example 15, 2-(4-Methyl-piperazin-1-yl)-4-o-tolyloxy-pyrimidine-5-carboxylic acid (3,5-dimethyl-benzyl)-methyl-amide] had a Ki of 28.2 nM.
Compound `Cc1ccccc1Oc1nc(N2CCN(C)CC2)ncc1C(=O)NCc1cc(Cl)cc(Cl)c1` [Example 19, 2-(4-Methyl-piperazin-1-yl)-4-o-tolyloxy-pyrimidine-5-carboxylic acid 3,5-dichloro-benzylamide] gave a Ki of 195 nM.
Consider `CSc1ncc(C(=O)N(C)Cc2cc(C(F)(F)F)cc(C(F)(F)F)c2)c(Oc2ccccc2)n1` [Example 23, 2-Methylsulfanyl-4-phenoxy-pyrimidine-5-carboxylic acid (3,5-bis-trifluoromethyl-benzyl)-methyl-amide], for which the Ki is 97.7 nM.
Take `Cc1ccccc1Oc1nc(-c2ccncc2)ncc1C(=O)N(C)Cc1cc(C(F)(F)F)cc(C(F)(F)F)c1` [Example 39, 2-Pyridin-4-yl-4-o-tolyloxy-pyrimidine-5-carboxylic acid (3,5-bis-trifluoromethyl-benzyl)-methyl-amide]: the Ki was 16.2 nM.
Still for that read-out and setting: as for `Cc1ccccc1Oc1nc(N2CCSCC2)ncc1C(=O)N(C)Cc1cc(C(F)(F)F)cc(C(F)(F)F)c1` [Example 44, 2-Thiomorpholin-4-yl-4-o-tolyloxy-pyrimidine-5-carboxylic acid (3,5-bis-trifluoromethyl-benzyl)-methyl-amide], the figure is 20 nM; as for `Cc1ccccc1Oc1nc(N2CCN(C)CC2)ncc1N(C)C(=O)C(C)(C)c1cc(C(F)(F)F)cc(C(F)(F)F)c1` [Example 49, 2-(3,5-Bis-trifluoromethyl-phenyl)-N-methyl-N-[2-(4-methyl-piperazin-1-yl)-4-o-tolyloxy-pyrimidin-5-yl]-isobutyramide], 0.912 nM; as for `Cc1ccccc1Oc1nc(OCCN2CCOCC2)ncc1N(C)C(=O)C(C)(C)c1cc(C(F)(F)F)cc(C(F)(F)F)c1` [Example 52, 2-(3,5-Bis-trifluoromethyl-phenyl)-N-methyl-N-[2-(2-morpholin-4-yl-ethoxy)-4-o-tolyloxy-pyrimidin-5-yl]-isobutyramide], 0.794 nM.
Consider `CN(C)CCCOc1ncc(N(C)C(=O)C(C)(C)c2cc(C(F)(F)F)cc(C(F)(F)F)c2)c(Oc2ccc(F)cc2)n1` [Example 63, 2-(3,5-Bis-trifluoromethyl-phenyl)-N-[2-(3-dimethylamino-propoxy)-4-(4-fluoro-phenoxy)-pyrimidin-5-yl]-N-methyl-isobutyramide], for which the Ki was 9.55 nM.
For the compound `Cc1ccccc1Oc1nc(-c2ccccc2)ncc1N(C)C(=O)C(C)(C)c1cc(C(F)(F)F)cc(C(F)(F)F)c1` [Example 73, 2-(3,5-Bis-trifluoromethyl-phenyl)-N-methyl-N-(2-phenyl-4-o-tolyloxy-pyrimidin-5-yl)-isobutyramide], the affinity corresponds to a Ki of 32.4 nM.
